Source: PubChem BioAssay (NCI)
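All cell lines were grown in 96-well plates and treated with compound for 48 hours. GI50 = concentration required for 50% inhibition of growth. TGI: concentration producing complete growth inhibition.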

Assays:
Test in all cases: inhibition of tumour cell growth, NCI panel, 48 h
IGROV1 ovarian = tested on: IGROV1 ovarian
HOP-62 NSCLC = tested on: HOP-62 NSCLC
T-47D breast = tested on: T-47D breast
MALME-3M melanoma = tested on: MALME-3M melanoma
CAKI-1 renal = tested on: CAKI-1 renal
HL-60(TB) leukemia = tested on: HL-60(TB) leukemia
HOP-92 NSCLC = tested on: HOP-92 NSCLC
UACC-62 melanoma = tested on: UACC-62 melanoma
OVCAR-4 ovarian = tested on: OVCAR-4 ovarian
SK-OV-3 ovarian = tested on: SK-OV-3 ovarian

## COc1ccc(OC)c([N+](=O)[O-])c1-c1nc2sc(C)c(C)n2c1/C=N/N=C(N)N
IGROV1 ovarian
  TGI: > 100 µM
HOP-62 NSCLC
  TGI: > 100 µM
T-47D breast
  TGI: 61.2 µM
MALME-3M melanoma
  TGI: > 100 µM
CAKI-1 renal
  TGI: > 100 µM
HL-60(TB) leukemia
  TGI: 64.9 µM
HOP-92 NSCLC
  TGI: > 100 µM
UACC-62 melanoma
  TGI: > 100 µM
OVCAR-4 ovarian
  TGI: > 100 µM

## CC(C)=CC[C@H]1C[C@@]2(CC=C(C)C)C(=O)/C(=C(/O)c3ccccc3)C(=O)[C@](CC=C(C)C)(C2=O)C1(C)C
IGROV1 ovarian
  TGI: 20.3 µM
HOP-62 NSCLC
  TGI: 29.3 µM
T-47D breast
  TGI: 35.2 µM
MALME-3M melanoma
  TGI: 27.9 µM
CAKI-1 renal
  TGI: 28.9 µM
SK-OV-3 ovarian
  TGI: 24.3 µM
HOP-92 NSCLC
  TGI: 19.1 µM
UACC-62 melanoma
  TGI: 13.6 µM
OVCAR-4 ovarian
  TGI: 26.4 µM

## N=C(N)SCCN1CCCCC1
IGROV1 ovarian
  TGI: > 100 µM
HOP-62 NSCLC
  TGI: > 100 µM
T-47D breast
  TGI: 85.6 µM
MALME-3M melanoma
  TGI: 32.1 µM
CAKI-1 renal
  TGI: 72.9 µM
HL-60(TB) leukemia
  TGI: 46.3 µM
SK-OV-3 ovarian
  TGI: > 100 µM
HOP-92 NSCLC
  TGI: > 100 µM
UACC-62 melanoma
  TGI: 55.2 µM
OVCAR-4 ovarian
  TGI: > 100 µM

## O=C(CSc1nc2ccc(I)cc2c(=O)n1Cc1ccccc1)NN1C(=O)CSC1c1ccccc1 (configuration not stated)
IGROV1 ovarian
  TGI: 55.6 µM
HOP-62 NSCLC
  TGI: 48.5 µM
T-47D breast
  TGI: 92.5 µM
CAKI-1 renal
  TGI: 10.9 µM
HL-60(TB) leukemia
  TGI: 58.9 µM
SK-OV-3 ovarian
  TGI: 67.9 µM
HOP-92 NSCLC
  TGI: 46.9 µM
UACC-62 melanoma
  TGI: 36.7 µM
OVCAR-4 ovarian
  TGI: 76.1 µM

## C[N+]1(C)C/C(=C\c2ccc(O)cc2)C(=O)/C(=C/c2ccc(O)cc2)C1
IGROV1 ovarian
  TGI: > 100 µM
HOP-62 NSCLC
  TGI: > 100 µM
MALME-3M melanoma
  TGI: > 100 µM
CAKI-1 renal
  TGI: > 100 µM
HL-60(TB) leukemia
  TGI: > 100 µM
SK-OV-3 ovarian
  TGI: > 100 µM
HOP-92 NSCLC
  TGI: > 100 µM
UACC-62 melanoma
  TGI: > 100 µM
OVCAR-4 ovarian
  TGI: > 100 µM

## CC(=O)[C@]12OC(=O)C3=C1[C@H](CC[C@@H]3C)[C@@H](C)C[C@H]2C=C(C)C
IGROV1 ovarian
  TGI: 14.2 µM
HOP-62 NSCLC
  TGI: 16 µM
T-47D breast
  TGI: 14.4 µM
CAKI-1 renal
  TGI: 13 µM
HL-60(TB) leukemia
  TGI: 16 µM
SK-OV-3 ovarian
  TGI: 21.3 µM
HOP-92 NSCLC
  TGI: 7.43 µM
UACC-62 melanoma
  TGI: 12.6 µM

## CCCCCCCCc1ccc(CCC(N)(CO)CO)cc1
IGROV1 ovarian
  GI50: 1.89 µM
  TGI: 3.9 µM
HOP-62 NSCLC
  GI50: 1.69 µM
  TGI: 3.08 µM
T-47D breast
  GI50: 1.78 µM
  TGI: 3.44 µM
MALME-3M melanoma
  GI50: 2.32 µM
  TGI: 5.8 µM
CAKI-1 renal
  GI50: 2.64 µM
  TGI: 6.56 µM
HL-60(TB) leukemia
  GI50: 1.32 µM
  TGI: 3.03 µM
SK-OV-3 ovarian
  GI50: 1.61 µM
  TGI: 3.09 µM
HOP-92 NSCLC
  GI50: 1.39 µM
  TGI: 3.53 µM
UACC-62 melanoma
  GI50: 1.72 µM
  TGI: 3.31 µM

## CC(=O)c1c(C)cc2cccc(OC3OC(CO)C(O)C(O)C3O)c2c1O (configuration not stated) (tested in a mixture with another compound)
IGROV1 ovarian
  TGI: > 100 µM
HOP-62 NSCLC
  TGI: > 100 µM
T-47D breast
  TGI: > 100 µM
MALME-3M melanoma
  TGI: > 100 µM
CAKI-1 renal
  TGI: > 100 µM
HL-60(TB) leukemia
  TGI: > 100 µM
SK-OV-3 ovarian
  TGI: > 100 µM
HOP-92 NSCLC
  TGI: > 100 µM
UACC-62 melanoma
  TGI: > 100 µM
OVCAR-4 ovarian
  TGI: > 100 µM

## C=C(C[C@@H](O)[C@H](C)NC(=O)OCc1ccccc1)C(=O)OC(C)(C)C
IGROV1 ovarian
  TGI: > 100 µM
HOP-62 NSCLC
  TGI: > 100 µM
T-47D breast
  TGI: 67.3 µM
MALME-3M melanoma
  TGI: > 100 µM
CAKI-1 renal
  TGI: > 100 µM
HL-60(TB) leukemia
  TGI: > 100 µM
SK-OV-3 ovarian
  TGI: > 100 µM
HOP-92 NSCLC
  TGI: > 100 µM
UACC-62 melanoma
  TGI: > 100 µM
OVCAR-4 ovarian
  TGI: > 100 µM

## COc1cc(O)c2c(=O)c(OC)c(-c3ccc(OC)c(OC)c3)oc2c1.[Zn+2]
IGROV1 ovarian
  GI50: 29.8 µM
  TGI: > 100 µM
HOP-62 NSCLC
  GI50: 2.87 µM
  TGI: 11.4 µM
T-47D breast
  GI50: 5.7 µM
  TGI: > 100 µM
MALME-3M melanoma
  GI50: 33.3 µM
  TGI: > 100 µM
CAKI-1 renal
  TGI: > 100 µM
HL-60(TB) leukemia
  TGI: > 100 µM
SK-OV-3 ovarian
  TGI: 47.2 µM
UACC-62 melanoma
  GI50: 11.7 µM
  TGI: > 100 µM
OVCAR-4 ovarian
  GI50: 4.19 µM
  TGI: 32.2 µM

## CC(=O)Oc1cc(/C=C/c2ccc(O)cc2)cc(OC(C)=O)c1
IGROV1 ovarian
  TGI: > 100 µM
HOP-62 NSCLC
  TGI: > 100 µM
T-47D breast
  TGI: > 100 µM
MALME-3M melanoma
  TGI: > 100 µM
CAKI-1 renal
  TGI: > 100 µM
HL-60(TB) leukemia
  TGI: > 100 µM
SK-OV-3 ovarian
  TGI: > 100 µM
HOP-92 NSCLC
  TGI: > 100 µM
UACC-62 melanoma
  TGI: 67.3 µM
OVCAR-4 ovarian
  TGI: > 100 µM

## C[N+]1(c2ccccc2)C=C(c2ccccc2)SC1=S (configuration not stated)
IGROV1 ovarian
  TGI: > 100 µM
HOP-62 NSCLC
  TGI: > 100 µM
T-47D breast
  TGI: 8.63 µM
MALME-3M melanoma
  TGI: > 100 µM
CAKI-1 renal
  TGI: > 100 µM
HL-60(TB) leukemia
  TGI: > 100 µM
UACC-62 melanoma
  TGI: > 100 µM

## CC[C@H]1C=CCC[C@@]2(C[C@@H]3CC[C@H]4[C@@H](C(=O)OCCCCCCCCCCCCCCCC(=O)N(CCCNC(C)=O)C[C@H](CCNC(C)=O)OC(C)=O)[C@@]5(CCC[C@@H](C)O5)NC(=[N+]34)N2)O1
IGROV1 ovarian
  TGI: 2.66 µM
HOP-62 NSCLC
  TGI: 3.42 µM
MALME-3M melanoma
  TGI: 2.99 µM
CAKI-1 renal
  TGI: 5.08 µM
HL-60(TB) leukemia
  TGI: 2.91 µM
SK-OV-3 ovarian
  TGI: 3.12 µM
HOP-92 NSCLC
  TGI: 2.43 µM
UACC-62 melanoma
  TGI: 3.52 µM
OVCAR-4 ovarian
  TGI: 3.16 µM

## Nc1ccc(S(=O)(=O)NCCS(=O)(=O)O)cc1
IGROV1 ovarian
  TGI: > 100 µM
HOP-62 NSCLC
  TGI: > 100 µM
MALME-3M melanoma
  TGI: > 100 µM
CAKI-1 renal
  TGI: > 100 µM
HL-60(TB) leukemia
  TGI: > 100 µM
HOP-92 NSCLC
  TGI: > 100 µM
UACC-62 melanoma
  TGI: > 100 µM
OVCAR-4 ovarian
  TGI: > 100 µM

## NC(=S)N/N=C1\CC(c2ccccc2)Nc2ccccc21 (configuration not stated)
IGROV1 ovarian
  TGI: > 100 µM
MALME-3M melanoma
  TGI: 97 µM
CAKI-1 renal
  TGI: > 100 µM
HL-60(TB) leukemia
  TGI: 31.3 µM
SK-OV-3 ovarian
  TGI: > 100 µM
HOP-92 NSCLC
  TGI: 57.5 µM
UACC-62 melanoma
  TGI: > 100 µM

## O=C(c1ccc(Cl)c(Cl)c1)N(C(=O)N1CCN(c2ccccc2)CC1)S(=O)(=O)c1ccccc1
HOP-62 NSCLC
  TGI: > 100 µM
T-47D breast
  TGI: > 100 µM
MALME-3M melanoma
  TGI: > 100 µM
CAKI-1 renal
  TGI: > 100 µM
HL-60(TB) leukemia
  TGI: > 100 µM
SK-OV-3 ovarian
  TGI: 79.6 µM
HOP-92 NSCLC
  TGI: 84.4 µM
UACC-62 melanoma
  TGI: > 100 µM
OVCAR-4 ovarian
  TGI: 65.6 µM

## O=C(/C=C/c1ccc(O)cc1)c1cc(-c2cc(CCC(=O)c3ccc(O)cc3O)ccc2O)c(O)cc1O
IGROV1 ovarian
  TGI: > 50 µM
HOP-62 NSCLC
  TGI: > 50 µM
T-47D breast
  TGI: > 50 µM
MALME-3M melanoma
  TGI: > 50 µM
CAKI-1 renal
  TGI: > 50 µM
HL-60(TB) leukemia
  TGI: > 50 µM
SK-OV-3 ovarian
  TGI: 42.6 µM
HOP-92 NSCLC
  TGI: > 50 µM
UACC-62 melanoma
  TGI: > 50 µM
OVCAR-4 ovarian
  TGI: > 50 µM

## Cc1ncc(COP(=O)(O)O)c(C)c1O
IGROV1 ovarian
  TGI: > 100 µM
HOP-62 NSCLC
  TGI: > 100 µM
T-47D breast
  TGI: > 100 µM
MALME-3M melanoma
  TGI: > 100 µM
CAKI-1 renal
  TGI: > 100 µM
HL-60(TB) leukemia
  TGI: > 100 µM
HOP-92 NSCLC
  TGI: > 100 µM
UACC-62 melanoma
  TGI: > 100 µM
OVCAR-4 ovarian
  TGI: > 100 µM

## CC(=O)C(N=NC1CCC(S(=O)(=O)NB2N=CS2)CC1)C(=O)Nc1ccccc1C (configuration not stated)
IGROV1 ovarian
  TGI: 35.2 µM
HOP-62 NSCLC
  TGI: 34.7 µM
MALME-3M melanoma
  TGI: 30.5 µM
CAKI-1 renal
  TGI: 46.9 µM
HL-60(TB) leukemia
  TGI: > 100 µM
SK-OV-3 ovarian
  TGI: 50.6 µM
HOP-92 NSCLC
  TGI: 34.3 µM
UACC-62 melanoma
  TGI: 34.8 µM
OVCAR-4 ovarian
  TGI: 74.1 µM

## CCOc1ccc(N=Nc2ccc(-c3ccc(N=Nc4c(O)ccc5cc(S(=O)(=O)O)cc(S(=O)(=O)O)c45)cc3)cc2)cc1
IGROV1 ovarian
  TGI: > 100 µM
HOP-62 NSCLC
  TGI: > 100 µM
MALME-3M melanoma
  TGI: > 100 µM
CAKI-1 renal
  TGI: > 100 µM
HL-60(TB) leukemia
  TGI: > 100 µM
SK-OV-3 ovarian
  TGI: > 100 µM
HOP-92 NSCLC
  TGI: > 100 µM
UACC-62 melanoma
  TGI: > 100 µM
OVCAR-4 ovarian
  TGI: > 100 µM

## O=C1O/C(=C\C=C\CO)C=C1/C=C/CO
IGROV1 ovarian
  TGI: 38.6 µM
T-47D breast
  TGI: 51.7 µM
MALME-3M melanoma
  TGI: 32.5 µM
CAKI-1 renal
  TGI: 28.3 µM
HL-60(TB) leukemia
  TGI: 54.7 µM
SK-OV-3 ovarian
  TGI: > 100 µM
UACC-62 melanoma
  TGI: 39.8 µM
OVCAR-4 ovarian
  TGI: > 100 µM
